Measurements: patent US9834558B2, “Substituted bridged urea analogs as sirtuin modulators” (GLAXOSMITHKLINE LLC, priority 2013, dated 2017)
Where two headings read alike, the source gives them in different places. Values belong to the compound of their own block, whether it stands above or below them.

Molecular target: T1, SIRT1 (Homo sapiens, UniProt Q96EB6)
T1 sequence (Q96EB6 1-747): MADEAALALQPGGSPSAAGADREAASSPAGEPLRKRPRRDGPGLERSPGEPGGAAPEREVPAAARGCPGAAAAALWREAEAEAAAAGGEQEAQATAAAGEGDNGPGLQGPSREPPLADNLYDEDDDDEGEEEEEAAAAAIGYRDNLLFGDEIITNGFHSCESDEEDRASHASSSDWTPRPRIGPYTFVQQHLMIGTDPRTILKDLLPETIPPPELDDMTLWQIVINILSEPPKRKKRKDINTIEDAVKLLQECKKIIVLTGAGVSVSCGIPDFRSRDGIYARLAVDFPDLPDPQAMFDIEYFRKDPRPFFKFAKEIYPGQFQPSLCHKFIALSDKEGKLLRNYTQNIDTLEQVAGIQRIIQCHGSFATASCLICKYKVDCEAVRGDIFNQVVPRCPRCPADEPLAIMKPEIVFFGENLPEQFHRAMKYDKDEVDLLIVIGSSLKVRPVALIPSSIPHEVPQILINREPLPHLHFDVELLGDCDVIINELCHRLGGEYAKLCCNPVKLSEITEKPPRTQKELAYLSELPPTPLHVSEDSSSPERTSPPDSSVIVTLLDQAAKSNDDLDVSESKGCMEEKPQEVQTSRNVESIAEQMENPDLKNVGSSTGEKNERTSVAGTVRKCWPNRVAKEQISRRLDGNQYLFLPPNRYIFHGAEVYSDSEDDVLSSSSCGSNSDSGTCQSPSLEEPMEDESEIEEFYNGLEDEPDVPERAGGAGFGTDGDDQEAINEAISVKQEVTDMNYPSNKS
Experiment: Trp mass spectrometry assay of SIRT1 activation
Assay type: biochemical
Settings: for TRP Activity (EC1.5): EC1.5 = concentration that results in 150% activation of SIRT1; for Emax: read-out: TRP MAX RESP (percent maximum fold activation)
Procedure, shortened: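 Activation read-out: mass-spec measurement of O-acetyl-ADP-ribose or deacetylated Trp peptide versus compound-free controls, giving EC1.5 and Percent Maximum Activation. Reactions ran 25 min at 25 °C, pH 7.5, with 120 μM βNAD+, 0.5 μM acetylated p53-derived peptide and 10 nM His-tagged SIRT1.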

[1] = Trp mass spectrometry assay, EC1.5 = concentration of test compound that results in 150% activation of SIRT1
[2] = Trp peptide assay, maximum activity relative to control (100%)
[3] = concentration giving 150% activation of SIRT1, Trp peptide substrate
[4] = Trp mass spectrometry assay, concentration of test compound giving 150% activation of SIRT1

Tryp AVG EC1.5 (μM) [1]: B (B (EC1.5 1-25 μM))
Structure (SMILES): O=C(Nc1cnccn1)N1c2nc(-c3cccc(N4CCOCC4)c3)ccc2N2CCC[C@H]1C2 [Example 560]

Tryp AVG EC1.5 (μM) [3]: A (A (EC1.5<1 μM))
Structure (SMILES): NCc1cnnn1-c1cccc(NC(=O)N2c3nc(-c4cccc(C(F)(F)F)c4)ccc3N3CC[C@H]2C3)c1 [Example 640]

Tryp AVG EC1.5 (μM) [1]: B (B (EC1.5 1-25 μM))
Structure (SMILES): Cc1ccc(-c2ccc3c(n2)N(C(=O)Nc2cccnc2)[C@H]2CCCN3C2)cn1 [Example 514]

Tryp AVG EC1.5 (μM) [3]: A (A (EC1.5<1 μM))
Structure (SMILES): N=C(N)NCc1ccc(NC(=O)N2c3nc(-c4cccc(C(F)(F)F)c4)ccc3N3CCC[C@H]2C3)cc1 [Example 777]

Tryp AVG EC1.5 (μM) [1]: B (B (EC1.5 1-25 μM))
Structure (SMILES): O=C(Nc1ccccn1)N1c2nc(-c3cccc(Cl)c3)ccc2N2CCC1CC2 [Example 533]

Tryp AVG EC1.5 (μM) [3]: B (B (EC1.5 1-25 μM))
Structure (SMILES): NCc1cccc(NC(=O)N2c3nc(-c4cccc(C(F)(F)F)c4)ccc3N3CC[C@H]2C3)c1 [Example 755]

Tryp AVG EC1.5 (μM) [1]: A (A (EC1.5<1 μM))
Structure (SMILES): O=C(Nc1cc(-c2cnco2)ccn1)N1c2nc(-c3cccc(C(F)(F)F)c3)ccc2N2CC[C@H]1C2 [Example 589]

Tryp AVG EC1.5 (μM) [3]: A (A (EC1.5<1 μM))
Structure (SMILES): O=C(Nc1cccnn1)N1c2nc(-c3cccc(Cl)c3)ccc2N2CC[C@H]1C2 [Example 822]

Tryp AVG EC1.5 (μM) [3]: B (B (EC1.5 1-25 μM))
Structure (SMILES): COc1cc(NC(=O)N2c3nc(-c4cncc(C(F)(F)F)c4)ccc3N3C[C@@H](O)[C@H]2C3)ncn1 [Example 696]

Tryp AVG EC1.5 (μM) [3]: A (A (EC1.5<1 μM))
Structure (SMILES): NS(=O)(=O)c1ccc(NC(=O)N2c3nc(-c4cccc(C(F)(F)F)c4)ccc3N3CC[C@H]2C3)cc1 [Example 643]

Tryp AVG EC1.5 (μM) [3]: A (A (EC1.5<1 μM))
Structure (SMILES): Cc1cc(-c2ccc3c(n2)N(C(=O)Nc2cncc(-c4cnco4)c2)[C@H]2CCN3C2)ccn1 [Example 748]

Tryp AVG EC1.5 (μM) [3]: A (A (EC1.5<1 μM))
Structure (SMILES): O=C(Nc1nnc(-c2cccnc2)o1)N1c2nc(-c3cccc(C(F)(F)F)c3)ccc2N2CC[C@H]1C2 [Example 721]

Tryp AVG EC1.5 (μM) [3]: A (A (EC1.5<1 μM))
Structure (SMILES): O=C(Nc1cccc(-c2cnco2)n1)N1c2nc(-c3cccc(C(F)(F)F)c3)ccc2N2C[C@@H](O)[C@H]1C2 [Example 698]

Tryp AVG EC1.5 (μM) [3]: A (A (EC1.5<1 μM))
Structure (SMILES): NCc1ncc(-c2cccc(NC(=O)N3c4nc(-c5cccc(C(F)(F)F)c5)ccc4N4CC[C@H]3C4)c2)o1 [Example 725]

Tryp AVG EC1.5 (μM) [3]: A (A (EC1.5<1 μM))
Structure (SMILES): O=C(Nc1ccccn1)N1c2nc(-c3cccc(C(F)(F)F)c3)ccc2N2CCC[C@H]1C2 [Example 820]

Tryp AVG EC1.5 (μM) [3]: B (B (EC1.5 1-25 μM))
Structure (SMILES): CC(C)(C)OC(=O)NCc1cccc(-c2ccc3c(n2)N(C(=O)Nc2ccncc2)[C@H]2CCCN3C2)c1 [Example 795]

Tryp AVG EC1.5 (μM) [3]: A (A (EC1.5<1 μM))
Structure (SMILES): O=C(Nc1nncs1)N1c2nc(-c3cccc(C(F)(F)F)c3)ccc2N2CC[C@H]1C2 [Example 646]

More lines, now with the values behind:

Structure (SMILES): Cc1cc(-c2ccc3c(n2)N(C(=O)Nc2cn(C)nn2)[C@H]2CCN3C2)ccn1 [(9S)-N-(1-methyl-1H-1,2,3-triazol-4-yl)-5-(2-methylpyridin-4-yl)-1,6,8-triazatricyclo[7.2.1.0^{2,7}]dodeca-2(7),3,5-triene-8-carboxamide]
TRP Activity (EC1.5) (Trp peptide assay): B (B (EC1.5 1-25 μM))
Emax [2]: > 150%

Structure (SMILES): Cc1cc(-c2ccc3c(n2)N(C(=O)Nc2nccc(C)n2)[C@H]2CCN3C2)ccn1 [(9S)-5-(2-methylpyridin-4-yl)-N-(4-methylpyrimidin-2-yl)-1,6,8-triazatricyclo[7.2.1.0^{2,7}]dodeca-2,4,6-triene-8-carboxamide]
TRP Activity (EC1.5) (Trp peptide assay): B (B (EC1.5 1-25 μM))
Emax [2]: > 150%

Structure (SMILES): O=C(Nc1ccccn1)N1c2nc(-c3cccc(Cl)c3)ccc2N2CCC[C@H]1C2 [Example 387]
Tryp AVG EC1.5 (μM) [4]: A (A (EC1.5<1 μM))

Structure (SMILES): COc1cc(NC(=O)N2c3nc(-c4cccnc4)ccc3N3CCC[C@H]2C3)ncn1 [Example 442]
Tryp AVG EC1.5 (μM) [1]: B (B (EC1.5 1-25 μM))

Structure (SMILES): Cc1nc(NC(=O)N2c3nc(-c4cncc(F)c4)ccc3N3CCC[C@H]2C3)sc1C [Example 471]
Tryp AVG EC1.5 (μM) [1]: B (B (EC1.5 1-25 μM))

Structure (SMILES): Cn1nc(C(F)(F)F)cc1-c1ccc2c(n1)N(C(=O)Nc1cnccn1)[C@H]1CCN2C1 [(9S)-5-[1-methyl-3-(trifluoromethyl)-1H-pyrazol-5-yl]-N-(pyrazin-2-yl)-1,6,8-triazatricyclo[7.2.1.0 {2,7}]dodeca-2(7),3,5-triene-8-carboxamide]
TRP Activity (EC1.5) (Trp peptide assay): B (B (EC1.5 1-25 μM))
Emax [2]: > 150%

Structure (SMILES): Cc1cc(-c2ccc3c(n2)N(C(=O)Nc2ncnc4[nH]cnc24)[C@H]2CCN3C2)ccn1 [(9S)-5-(2-methylpyridin-4-yl)-N-(9H-purin-6-yl)-1,6,8-triazatricyclo[7.2.1.0^{2,7}]dodeca-2,4,6-triene-8-carboxamide]
TRP Activity (EC1.5) (Trp peptide assay): B (B (EC1.5 1-25 μM))
Emax: > 150%

Structure (SMILES): CS(=O)(=O)c1cccc(-c2ccc3c(n2)N(C(=O)Nc2cnccn2)[C@H]2CCN3C2)c1 [Example 415]
Tryp AVG EC1.5 (μM) [4]: A (A (EC1.5<1 μM))

Structure (SMILES): Cc1n[nH]cc1-c1ccc2c(n1)N(C(=O)Nc1ccccn1)[C@H]1CCN2C1 [Example 370]
Tryp AVG EC1.5 (μM) [4]: B (B (EC1.5 1-25 μM))

Structure (SMILES): Cc1cc(-c2ccc3c(n2)N(C(=O)N2CC[C@@H](C)C2)[C@H]2CCN3C2)ccn1 [(9S)-5-(2-methylpyridin-4-yl)-8-{[(3R)-3-methylpyrrolidin-1-yl]carbonyl}-1,6,8-triazatricyclo[7.2.1.0 {2,7}]dodeca-2,4,6-triene]
TRP Activity (EC1.5) (Trp peptide assay): C (C (EC1.5>25 μM))
Emax [2]: < 150%

Structure (SMILES): Cc1cc(-c2ccc3c(n2)N(C(=O)Nc2ccnnc2)[C@H]2CCN3C2)ccn1 [(9S)-5-(2-methylpyridin-4-yl)-N-(pyridazin-4-yl)-1,6,8-triazatricyclo[7.2.1.0^{2,7}]dodeca-2,4,6-triene-8-carboxamide]
TRP Activity (EC1.5) (Trp peptide assay): B (B (EC1.5 1-25 μM))
Emax [2]: > 150%

Structure (SMILES): O=C(Nc1cnccn1)N1c2nc(N3CCCCC3)ccc2N2CC[C@H]1C2 [(9S)-5-(piperidin-1-yl)-N-(pyrazin-2-yl)-1,6,8-triazatricyclo[7.2.1.0 {2,7}]dodeca-2,4,6-triene-8-carboxamide]
TRP Activity (EC1.5) (Trp peptide assay): B (B (EC1.5 1-25 μM))
Emax [2]: > 150%

Structure (SMILES): O=C(Nc1ccc(F)cn1)N1c2nc(-c3cccc(C(F)(F)F)n3)ccc2N2CC[C@H]1C2 [Example 340]
Tryp AVG EC1.5 (μM) [4]: B (B (EC1.5 1-25 μM))

Structure (SMILES): Cc1ccc(-c2cc(C)c3c(n2)N(C(=O)Nc2ccccn2)[C@H]2CCN3C2)cn1 [(9S)-3-methyl-5-(6-methylpyridin-3-yl)-N-(pyridin-2-yl)-1,6,8-triazatricyclo[7.2.1.0^{2,7}]dodeca-2,4,6-triene-8-carboxamide]
TRP Activity (EC1.5) (Trp peptide assay): B (B (EC1.5 1-25 μM))
Emax [2]: > 150%

Structure (SMILES): O=C(Nc1ncccn1)N1c2nc(N3CCC[C@H](C(F)(F)F)C3)ccc2N2CCC[C@H]1C2 [(9S)-N-(pyrimidin-2-yl)-5-[(3S)-3-(trifluoromethyl)piperidin-1-yl]-1,6,8-triazatricyclo[7.3.1.0 {2,7}]trideca-2(7),3,5-triene-8-carboxamide]
TRP Activity (EC1.5) (Trp peptide assay): A (A (EC1.5<1 μM))
Emax [2]: > 150%

Structure (SMILES): N#Cc1cccc(-c2ccc3c(n2)N(C(=O)Nc2cnccn2)[C@H]2CCCN3C2)c1 [Example 351]
Tryp AVG EC1.5 (μM) [4]: A (A (EC1.5<1 μM))

Structure (SMILES): COc1ncc(-c2ccc3c(n2)N(C(=O)Nc2cnccn2)[C@H]2CCN3C2)c(OC)n1 [Example 398]
Tryp AVG EC1.5 (μM) [4]: B (B (EC1.5 1-25 μM))

Structure (SMILES): O=C(Nc1cccnc1)N1c2nc(-c3cccnc3)ccc2N2CCC[C@H]1C2 [Example 455]
Tryp AVG EC1.5 (μM) [1]: B (B (EC1.5 1-25 μM))

Structure (SMILES): Cc1cc(-c2ccc3c(n2)N(C(=O)Nc2cccnn2)[C@H]2CCCN3C2)ccn1 [(9S)-5-(2-methylpyridin-4-yl)-N-(pyridazin-3-yl)-1,6,8-triazatricyclo[7.3.1.0 {2,7}]trideca-2(7),3,5-triene-8-carboxamide]
TRP Activity (EC1.5) (Trp peptide assay): A (A (EC1.5<1 μM))
Emax [2]: > 150%

Structure (SMILES): Cc1nn(C)c(C)c1-c1ccc2c(n1)N(C(=O)Nc1cccnc1)[C@H]1CCN2C1 [Example 486]
Tryp AVG EC1.5 (μM) [1]: C (C (EC1.5>25 μM))

Structure (SMILES): CCNC(=O)c1ccc2c(n1)N(C(=O)Nc1ccccn1)[C@H]1CCN2C1 [(9S)-5-N-ethyl-8-N-(pyridin-2-yl)-1,6,8-triazatricyclo[7.2.1.0 {2,7}]dodeca-2(7),3,5-triene-5,8-dicarboxamide]
TRP Activity (EC1.5) (Trp peptide assay): A (A (EC1.5<1 μM))
Emax [2]: > 150%

Structure (SMILES): O=C(Nc1ccccn1)N1c2nc(-c3cncc(F)c3)ccc2N2CCC[C@H]1C2 [Example 470]
Tryp AVG EC1.5 (μM) [1]: A (A (EC1.5<1 μM))

Structure (SMILES): CN(C)c1ccc(-c2ccc3c(n2)N(C(=O)Nc2ccccn2)[C@H]2CCN3C2)cn1 [Example 345]
Tryp AVG EC1.5 (μM) [4]: B (B (EC1.5 1-25 μM))

Structure (SMILES): O=C(Nc1ccccn1)N1c2nc(-c3ccc(Cl)c(Cl)c3)ccc2N2CC[C@H]1C2 [Example 332]
Tryp AVG EC1.5 (μM) [4]: A (A (EC1.5<1 μM))
